From PubChem BioAssay (NCI) come the findings set out here.

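A five-concentration, 48-hour dose response in 96-well plates underlies each endpoint, interpolated linearly between surrounding concentrations. TGI: total growth inhibition.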

Assay in all cases: DTP human tumour cell line panel, 48 h
Assay [1] has as its system MALME-3M melanoma.
The subject of assay [2] is DU-145 prostate.
For assay [3], the system named is A549 NSCLC.
The test system of assay [4] is T-47D breast.
For assay [5], the system named is CAKI-1 renal.
The subject of assay [6] is MDA-MB-435.
Assay [7] concerns HCT-15 colon.
Assay [8] relates to HS 578T breast.
The subject of assay [9] is NCI/ADR-RES ovarian.
In assay [10] the test system is HT29 colon.

In the case of `O=[N+]([O-])C(=C(N1CCCCC1)N1CCCCC1)/C(Cl)=C(\Cl)Br`, the TGI was 64.9 µM in assay [1]; over 100 µM in assay [2]; over 100 µM in assay [3]; 65.1 µM in assay [4]; 26.6 µM in [5]; 61.7 µM in assay [6]. The TGI in [7] is 54.1 µM; in [8], 45.4 µM; in assay [9], 91.8 µM; in assay [10] it was over 100 µM.
Regarding `O=C1c2ccccc2CN1c1ccc(O)cc1`, the TGI in assay [1], in [2], in [3], in [4], in assay [5] and in assay [6] was over 100 µM in each case. Further, the TGI in assay [7], in assay [8], in [9] and in [10] was over 100 µM each time.
For the compound `CC(=O)N/N=C1/NN(C(C)=O)C2(S1)C(=O)Nc1ccc(Br)cc12` (centres undefined), the TGI in assay [1], in [2], in assay [3], in [4], in assay [5] and in assay [6] was over 100 µM in each case. The TGI in assay [7], in assay [8], in assay [9] and in assay [10] was over 100 µM each time.
For the compound `O=c1cc(/C=C/c2ccc(O)c(O)c2)oc(/C=C/c2ccc(O)c(O)c2)c1`, the TGI in assay [1] was 19.1 µM; in [2] it was 12.8 µM; in assay [3], 37.1 µM; in assay [4] it was 9.5 µM; in [5] it was 11.4 µM; in assay [6], 11.8 µM. Moreover, the TGI in [7] was 27.6 µM; in assay [8] it was 65.9 µM; in [9], over 65.3 µM; in assay [10] it was 25.3 µM.
Take `CC(=O)OC[C@]1(C(=O)C(O)c2ccoc2)[C@H](C)CC[C@@]23COC(=O)C2=CCC[C@@H]31` (some centres undefined): the TGI in assay [2], in [3], in [4], in assay [5], in [6] and in [7] was over 10 µM throughout. Besides, the TGI in assay [8], in assay [9] and in [10] was over 10 µM in each case.
As to `CCOC1CC(=O)c2c(Br)sc(Br)c21` (centres undefined), the TGI in assay [1] was 40.8 µM; in assay [2] it was 32.5 µM; in [3] it was 95.1 µM; in assay [4], 44.1 µM; in [5], 31 µM; in [6], 33.6 µM. The TGI in assay [7] was 41.9 µM; in assay [8] it was 90.6 µM; in assay [9] it was over 100 µM; in assay [10] it was 44 µM.
In the case of `COc1cc2c(cc1OCCCCOc1cc(-c3ccc(F)cc3)nc(C)n1)N=C[C@@H]1CCCN1C2=O`, the TGI in assay [1] was determined as 1.82 µM; in [2], 50 µM; in [3], 10.8 µM; in assay [4], 1.14 µM; in [5], 2.05 µM; in assay [6], 1.42 µM. Also, the TGI was found to be 2.09 µM in [7], 2.79 µM in [8], 2.12 µM in assay [9] and 3.92 µM in [10].
In the case of `O=C1C(c2c(O)[nH]c3ccc(S(=O)(=O)O)cc23)=Nc2ccccc21`, the TGI in assay [1], in assay [2], in assay [3], in assay [4], in [5] and in assay [6] was over 100 µM throughout. The TGI in assay [7], in [8], in [9] and in assay [10] was over 100 µM each time.
With `CCN(CC)CCOC(NC(C)=O)(c1ccccc1)c1ccccc1`, the TGI in assay [1], in [2], in [3], in assay [4], in assay [6] and in [7] was over 100 µM in each case. The TGI in assay [8], in [9] and in assay [10] was over 100 µM each time.
As for `Cc1ccc(S(=O)(=O)Oc2cc(N)c3c(n2)CCC3)cc1`, the TGI in assay [2], in assay [3], in [4], in assay [5], in assay [6] and in assay [7] was over 100 µM each time. The TGI in assay [8], in assay [9] and in [10] was over 100 µM each time.
Consider `CC(C)(C)NC(=O)[C@H]1CC[C@H]2[C@@H]3CC=C4NC(=O)CC[C@]4(C)[C@H]3CC[C@]12C`, for which the TGI in [1], in [2], in assay [3], in assay [4], in assay [6] and in assay [7] was over 100 µM throughout. Besides, the TGI in [8], in [9] and in assay [10] was over 100 µM throughout.
With `CCCCn1c2c(n(CCCC)c1=S)-c1c(n(CCCC)c(=S)n1CCCC)S[Se][Se]S2`, the TGI in assay [1] is 5.09 µM; in assay [2] it was over 60.4 µM; in assay [3], over 88.7 µM; in [4], 2.04 µM; in [6], 39.1 µM; in assay [7], 15.9 µM. The TGI in [8] was 44.2 µM; in assay [9], 53 µM; in assay [10], 32.5 µM.
Consider `COc1cc(OCc2ccc3oc(=O)c(-c4ccccc4)nc3c2)cc(OC)c1OC`, for which the TGI in assay [1], in [2], in assay [3], in [4], in assay [6] and in assay [7] was over 100 µM in each case. Further, the TGI in [8], in assay [9] and in assay [10] was over 100 µM in each case.

One may read the TGI as the concentration giving total growth inhibition. A lower TGI goes with greater sensitivity of the cells.
